Measured values published in patent US20130059850A1, “AZA-INDOLE DERIVATIVES USEFUL AS MODULATORS OF FAAH” (MERCK SHARP & DOHME CORP., priority 2010, published 2013).

What was measured:
[1] = target: T1, human FAAH (Fatty Acid Amide Hydrolase) (Homo sapiens, UniProt O00519); assay: FAAH enzyme assay on CHO cell lysate expressing human FAAH (human LY), AAMCA fluorescent substrate; assay type: biochemical; conditions: human FAAH_CHO cell lysate
T1 construct: The full length FAAH was subcloned into the mammalian expression vector, pcDEF.neo, using XbaI and EcoRI restriction sites; expressed in transfected cells
T1 sequence (O00519 1-579): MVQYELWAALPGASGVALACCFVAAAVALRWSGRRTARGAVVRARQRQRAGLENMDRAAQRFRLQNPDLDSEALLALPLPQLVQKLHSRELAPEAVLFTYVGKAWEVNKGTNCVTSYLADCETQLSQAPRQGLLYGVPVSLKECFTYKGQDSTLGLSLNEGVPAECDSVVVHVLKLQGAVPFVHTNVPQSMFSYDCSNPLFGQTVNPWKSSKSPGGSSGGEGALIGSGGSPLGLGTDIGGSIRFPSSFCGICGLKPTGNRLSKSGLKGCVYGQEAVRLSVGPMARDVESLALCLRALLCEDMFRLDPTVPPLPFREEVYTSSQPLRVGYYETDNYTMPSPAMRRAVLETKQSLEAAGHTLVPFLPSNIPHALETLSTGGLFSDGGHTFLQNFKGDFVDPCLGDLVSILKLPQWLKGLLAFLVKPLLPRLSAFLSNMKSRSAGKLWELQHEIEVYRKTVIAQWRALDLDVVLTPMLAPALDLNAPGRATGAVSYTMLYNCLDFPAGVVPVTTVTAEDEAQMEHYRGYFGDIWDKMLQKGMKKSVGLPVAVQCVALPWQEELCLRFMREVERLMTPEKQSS
Method in brief: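 CHO cell lysate expressing full-length human FAAH, preincubated with compound 15 min at 22-25° C. in pH 8.0 phosphate buffer with 200 mM KCl and 0.1% fatty-acid-free BSA. 1 μM AAMCA final, 1-3 h at room temperature; 7-amino-4-methylcoumarin release read by fluorescence (Ex 360, Em 460 nm).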

[2] = target: T1, human FAAH (Fatty Acid Amide Hydrolase); assay: FAAH whole cell assay on CHO cells expressing human FAAH (human WC), AAMCA fluorescent substrate; assay type: cell-based; conditions: human FAAH_CHO whole cell
Method in brief: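 CHO cells stably expressing full-length human FAAH, harvested with enzyme-free dissociation and resuspended at 4×10^4 cells/assay (96-well) or 1×10^4 (384-well) in 50 mM phosphate pH 8.0, 1 mM EDTA, 200 mM KCl, 0.2% glycerol, 0.1% BSA.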

| Compound | IC50 [1] | IC50 [2] |
| --- | --- | --- |
| O=C1NCc2cc(-c3[nH]c4ncccc4c3Sc3ccc(Cl)cc3)ccc21 [Example A32] | 7.84 nM | 15.1 nM |
| O[C@H]1CC[C@H](c2[nH]c3ncccc3c2Sc2ccc(Cl)cc2)CC1 [Example D5, trans-4-{3-[(4-chlorophenyl)sulfanyl]-1H-pyrrolo[2,3-b]pyridin-2-yl}cyclohexanol] | 3.83 nM | 9.16 nM |
| NC1CC=C(c2[nH]c3ncccc3c2Sc2ccc(Cl)cc2)CC1 (stereo not shown) [Example B46] | 114 nM | 1410 nM |
| Clc1ccc(Sc2c(-c3ccc4c(c3)OCO4)[nH]c3ncccc23)nc1 [Example B5, 2-(1,3-benzodioxol-5-yl)-3-[(5-chloropyridin-2-yl)sulfanyl]-1H-pyrrolo[2,3-b]pyridine] | 2.58 nM | 13.7 nM |
| O=C(N[C@H]1CC[C@H](O)CC1)c1[nH]c2ncccc2c1Sc1ccc(Cl)cc1 [Example C4, 3-[(4-chlorophenyl)sulfanyl]-N-(trans-4-hydroxycyclohexyl)-1H-pyrrolo[2,3-b]pyridine-2-carboxamide] | 7.64 nM | 48 nM |
| CSc1ccc(-c2[nH]c3ncccc3c2Sc2ccc(Cl)cc2)cn1 [Example A16] | 3.08 nM | 24 nM |
| O=C1Cc2cc(-c3[nH]c4ncccc4c3Sc3ccc(Cl)cn3)ccc2N1 [Example A33] | 134 nM | 405 nM |
| FC(F)Oc1ccc(-c2[nH]c3ncccc3c2Sc2ccc(Cl)cc2)cc1 [Example B45] | 3.28 nM | 15.7 nM |
| NS(=O)(=O)c1ccc(-c2[nH]c3ncccc3c2Sc2ccc(Cl)cn2)cc1 [Example A8, 4-{3-[(5-chloropyridin-2-yl)sulfanyl]-1H-pyrrolo[2,3-b]pyridin-2-yl}benzenesulfonamide] | 6 nM | 21.8 nM |
| COc1ccc(-c2[nH]c3ncccc3c2Sc2ccc(Cl)cc2)cc1OC [Example B9] | 1.43 nM | 3.83 nM |
| COc1ccc(-c2[nH]c3ncccc3c2Sc2ccc(Cl)cc2)cc1 [Example B8] | 2.34 nM | 10.3 nM |

Second part, the molecule after the results:

| IC50 [1] | IC50 [2] | Compound |
| --- | --- | --- |
| 59 nM | 202 nM | CC1(C)CC(NCc2[nH]c3ncccc3c2Sc2ccc(Cl)cc2)CC(C)(C)O1 [Example J12] |
| 31.7 nM | 115 nM | OCCn1c(-c2ccc3c(c2)OCO3)c(Sc2ccc(Cl)cc2)c2cccnc21 [Example E35] |
| 106 nM | 186 nM | Cn1c(-c2ccc(C(O)C(F)(F)F)cc2)c(Sc2ccc(Cl)cc2)c2cccnc21 (stereo not shown) [Example E33] |
| 9.92 nM | 18.8 nM | Cn1cccc2c(Sc3ccc(Cl)cc3)c([C@H]3CC[C@H](O)CC3)nc1-2 [Example E7] |
| 4.22 nM | 12.4 nM | Cn1cccc2c(Sc3ccc(Cl)cc3)c(-c3ccc4[nH]ncc4c3)nc1-2 [Example E4] |
| 7.08 nM | 9.93 nM | Cn1c2ncccc2c(Sc2ccc(Cl)cc2)c1[C@H]1CC[C@H](O)CC1 [Example E34] |
